Assay results reported in patent publication US20120020958A1, “FIBCD1 FOR THE PREVENTION AND TREATMENT OF DISEASES” (Dansk Universitet, priority 2008, published 2012).
Read-outs that look alike come from different tables or passages of the source.

How the values were obtained:
FIBCD1 ectodomain = molecular target: T1, FIBCD1 ectodomain (Homo sapiens, UniProt Q8N539); assay: ELISA inhibition of binding between FIBCD1 ectodomain and acetylated BSA; conditions: for I50 relative (relative inhibitor potential): I50 of the best inhibitor divided by I50 of the compound; for IC50: read-out: I50 of the binding between FIBCD1 and acetylated BSA; for inhibition of binding of FIBCD1 to acetylated BSA: at a concentration of 50 mM
T1 construct: The V5-His tagged putative ectodomain of FIBCD1, encoding amino acid 54-461, was generated by PCR; made in house; host or cells: HEK293 (Flp-In T-REx), secreted via pSecTag/FRT/V5-His TOPO vector
T1 sequence (Q8N539 54-461): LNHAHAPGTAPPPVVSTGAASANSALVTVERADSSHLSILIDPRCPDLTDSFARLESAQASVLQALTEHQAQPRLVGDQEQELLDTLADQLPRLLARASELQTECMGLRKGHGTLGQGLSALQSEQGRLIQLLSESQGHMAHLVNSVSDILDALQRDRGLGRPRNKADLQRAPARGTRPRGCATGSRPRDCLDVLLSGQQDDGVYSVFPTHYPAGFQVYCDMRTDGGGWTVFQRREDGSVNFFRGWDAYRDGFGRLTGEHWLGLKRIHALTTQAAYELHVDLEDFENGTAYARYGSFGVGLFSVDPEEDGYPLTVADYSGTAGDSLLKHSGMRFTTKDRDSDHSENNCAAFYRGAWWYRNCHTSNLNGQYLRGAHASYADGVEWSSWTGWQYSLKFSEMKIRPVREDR
Description: The ligand selectivity of FIBCD1 was investigated by inhibiting the binding of FIBCD1 ectodomain to acetylated BSA coated microtiter plates (FIG. 2G, Table 1).
(§1) An ELISA system was used to evaluate the ability of various acetylated and nonacetylated compounds to inhibit the binding between FIBCD1 ectodomain and acetylated BSA (Sigma). Microtiter plates (NUNC Maxisorp, Denmark) were coated with acetylated BSA (Sigma) or BSA (Sigma) and blocked with TBS/Tw before being incubated with FIBCD1 ectodomain samples diluted in TBS/Tw (5 mM CaCl2). The binding between FIBCD1 and acetylated BSA was also tested in the presence of 10 mM EDTA, 5 mM MnCl2 or 5 mM MgCl2 instead of CaCl2. After incubation overnight at 4° C. and washing, the wells were incubated for 2 h at room temperature with chicken anti-FIBCD1 antibodies diluted 1:1000 in TBS/Tw (5 mM CaCl2). The plates were washed with TBS/Tw (5 mM CaCl2) and incubated for 1 h with alcalic phosphatase-labelled anti-chicken IgY (whole molecule) (Sigma-Aldrich) diluted 1:1500 in TBS/Tw (5 mM CaCl2) followed by washing and developed with 1 mg/ml para-nitrophenylphosphate, disodium salt (PNPP) (Boehringer Mannheim, Germany) in substrate buffer.
The mixtures were incubated overnight in the acetylated BSA coated wells overnight at 4° C. and processed as described above.

FIBCD1 = molecular target: T2, FIBCD1 (Homo sapiens, UniProt Q8N539); assay: ELISA binding of FIBCD1 to coated microtiter plates; conditions: for binding of FIBCD1 to coated substance: ELISA, microtiter plates coated with the substance; for substitution for calcium in binding to acetylated BSA: 5 mM MnCl2 or 5 mM MgCl2 instead of CaCl2
T2 construct: The V5-His tagged putative ectodomain of FIBCD1, encoding amino acid 54-461, was generated by PCR; made in house; host or cells: HEK293 (Flp-In T-REx), secreted via pSecTag/FRT/V5-His TOPO vector
T2 sequence (Q8N539 54-461): T1 sequence (Q8N539 54-461)
Description: (A) SDS-PAGE and Western blotting analysis of culture supernatant from HEK293 cells expression FIBCD1 in the non-reduced (lane 1) and reduced (lane 2) state developed with the monoclonal rat anti-FIBCD1 (HG-HYB-12-2). […] (D) Silver stained SDS-PAGE of fractions from (E) in the reduced and unreduced state. (E) Microtiterplates were coated with BSA or NAc-BSA and increasing amounts of FIBCD1 was added in the presence 5 mM CaCl2 or 10 mM EDTA. (F) Microtiterplates were coated with NAc-BSA and 100 ng/ml and FIBCD1 was added in the presence 0-1 mM CaCl2. (G) Microtiterplates were coated with NAc-BSA and increasing amounts of FIBCD1 was added in the presence 5 mM CaCl2, 5 mM MgCl2 or 5 mM MnCl2.
(§2) (A) Microtiter plates were coated with LPS 055, LPS 0111 LPS 026 or NAc-BSA. (B) Microtiterplates were coated with LTA, mannan, peptidoglycan or NAc-BSA and increasing concentrations of FIBCD1 was added. (C) Pull-down assays where 20 μg of the FIBCD1 (the FReD of FIBCD1) or as a positive control 20 μg of wheat germ agglutinin (WGA) was added to 2 mg insoluble chitin, cellulose, zymozane or beta-glucan. […] BSA was used as control. Pellet fractions were analyzed by SDS-PAGE and Coomassie blue staining.
as §1

[1] = tested on: CHO cells transfected with FIBCD1 cDNA; assay: FIBCD1-mediated endocytosis of acetylated BSA in CHO cells; format: cell-based, Chinese hamster; conditions: for uptake and degradation of 125I labelled acetylated BSA: GlcNAc at 10 mM
Description: Degradation was measured, as the cell-mediated increase in of TCA-soluble radioactivity in the growth medium and cell-associated was determined by counting the radioactivity of the cell lysate. (A) CHO cells and (B) CHO/FIBCD1 cells. (C) Effect of lysosomal inhibitors chloroquine and leupeptin (both 100 μM) on endocytosis of NAc-BSA. Values are mean+/−1 SD of triplicate samples. […] Fluorescence microscopy of CHO-FReD (E) and CHO (F) after incubation with Alexa488 acetylated BSA.

[2] = molecular target: T3, FIBCD1 (the FReD of FIBCD1) (Homo sapiens, UniProt Q8N539); assay: Pull-down assay of FIBCD1 (FReD) with insoluble polysaccharides; format: binding; conditions: 20 μg FIBCD1 FReD, 2 mg insoluble substance
T3 construct: 20 μg of the FIBCD1 (the FReD of FIBCD1)
T3 sequence (Q8N539 235-458 limits assumed): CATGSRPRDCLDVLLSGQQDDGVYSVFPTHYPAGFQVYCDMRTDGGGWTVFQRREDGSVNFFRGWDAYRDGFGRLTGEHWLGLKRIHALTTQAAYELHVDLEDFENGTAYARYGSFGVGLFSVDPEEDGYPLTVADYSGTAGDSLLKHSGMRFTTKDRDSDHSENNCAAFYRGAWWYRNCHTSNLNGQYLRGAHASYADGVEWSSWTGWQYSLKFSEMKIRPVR
Description: as §2, with “(B)” for “(A) Microtiter plates were coated with LPS 055, LPS 0111 LPS 026 or NAc-BSA. (B)”

[3] = 100 ng/ml FIBCD1 ectodomain, 5 mM CaCl2, N.I. = less than 50% inhibition at 50 mM

N[C@H]1C(O)O[C@H](CO)[C@H](O)[C@@H]1O (some centres unmarked) [Galactoseamin, galactosamine, reference compound]
I50 of the binding between FIBCD1 and acetylated BSA (FIBCD1 ectodomain; [3]): N.I.

N-acetyl bovine serum albumin [NAc-BSA]
binding of FIBCD1 to coated substance (FIBCD1): binding | binding of FIBCD1 to coated substance (FIBCD1; listed as acetylated BSA): bound | uptake and degradation of 125I labelled acetylated BSA ([1]; CHO/FIBCD1 cells): inhibited

N[C@@H]1C(O)O[C@H](CO)[C@@H](O)[C@@H]1O (some centres unmarked) [Mannosamine, mannosamine, reference compound]
I50 of the binding between FIBCD1 and acetylated BSA (FIBCD1 ectodomain; [3]): N.I.

mannan
binding of FIBCD1 to coated substance (FIBCD1): no binding

CC(=O)N[C@H]1[C@H]([C@H](O)[C@H](O)CO)OC(O)(C(=O)O)C[C@@H]1O (some centres unmarked) [Sialic acid, N-acetylneuraminic acid]
I50 relative (relative inhibitor potential) (FIBCD1 ectodomain): 1 | IC50 (FIBCD1 ectodomain): 2 mM

CC(=O)N[C@H]1C(O)O[C@H](CO)[C@@H](O)[C@@H]1O (some centres unmarked) [N-acetylglucosamine, N-acetyl glucosamine]
I50 relative (relative inhibitor potential) (FIBCD1 ectodomain): 0.5 | IC50 (FIBCD1 ectodomain): 4 mM | uptake and degradation of 125I labelled acetylated BSA ([1]; CHO/FIBCD1 cells): inhibited

[Mn+2] [manganese]
substitution for calcium in binding to acetylated BSA (FIBCD1): could substitute for calcium

Alexa488 labelled acetylated BSA: acetylated BSA coupled with Alexa Fluor 488 C5 maleimide
uptake in CHO cells transfected with FIBCD1 cDNA ([1]; fluorescence microscopy): mediate uptake | uptake in non-transfected CHO cells [1]: no uptake

^125I-labeled NAc-BSA: acetylated BSA labelled with 125I using the chloroamine-T method
time at which cell-associated radioactivity reached a plateau ([1]; CHO/FIBCD1 cells, 37° C.): one | uptake in non-transfected CHO cells [1]: no uptake

[Ca+2].[Cl-].[Cl-] [calcium, calcium chloride]
calcium concentration for optimum binding to acetylated BSA (FIBCD1; 100 ng/ml FIBCD1, 0-1 mM CaCl2): 0.6 mM

[Mg] [magnesium]
substitution for calcium in binding to acetylated BSA (FIBCD1): could not

CC(=O)N[C@@H](C)C(=O)O [N-acetylalanine]
I50 relative (relative inhibitor potential) (FIBCD1 ectodomain): 0.5 | IC50 (FIBCD1 ectodomain): 4 mM

zymosan
binding of FIBCD1 in pull-down [2]: no binding

CC(=O)N[C@@H]1C(O)O[C@H](CO)[C@@H](O)[C@@H]1O (some centres unmarked) [N-acetylmannoseamine, N-acetyl mannosamine]
I50 relative (relative inhibitor potential) (FIBCD1 ectodomain): 1 | IC50 (FIBCD1 ectodomain): 2 mM

C[C@H](N)C(=O)O [Alanine, L-alanine, reference compound]
I50 of the binding between FIBCD1 and acetylated BSA (FIBCD1 ectodomain; [3]): N.I.

O=C[C@H](O)[C@@H](O)[C@@H](O)[C@H](O)CO [Galactose, galactose, reference compound]
I50 of the binding between FIBCD1 and acetylated BSA (FIBCD1 ectodomain; [3]): N.I.

peptidoglycan
binding of FIBCD1 to coated substance (FIBCD1): no binding

CC(=O)OCC[N+](C)(C)C [Acetylcholine, acetyl cholin]
IC50 (FIBCD1 ectodomain): 10 mM

lipoteichoid acid [LTA]
binding of FIBCD1 to coated substance (FIBCD1): no binding

cellulose
binding of FIBCD1 in pull-down [2]: no binding

CC(=O)N[C@@H]1[C@@H](O)[C@@H](O)[C@@H](CO)O[C@@H]1O [N-acetylgalactoseamine]
IC50 (FIBCD1 ectodomain; [3]): 5 mM | I50 relative (relative inhibitor potential) (FIBCD1 ectodomain): 0.4

lipopolysaccharide [LPS]
binding of FIBCD1 to coated substance (FIBCD1): no binding

CCC(=O)[O-].[Na+] [Propionate, sodium propionate, reference compound]
I50 of the binding between FIBCD1 and acetylated BSA (FIBCD1 ectodomain; [3]): N.I. | inhibition of binding of FIBCD1 to acetylated BSA (FIBCD1 ectodomain): did not inhibit

β-1,3-glucan
binding of FIBCD1 in pull-down [2]: no binding

N[C@H]1C(O)O[C@H](CO)[C@@H](O)[C@@H]1O (some centres unmarked) [Glucosamine, glucosamine, reference compound]
I50 of the binding between FIBCD1 and acetylated BSA (FIBCD1 ectodomain; [3]): N.I.

CCCC(=O)[O-].[Na+] [Butyrate, sodium butyrate, reference compound]
I50 of the binding between FIBCD1 and acetylated BSA (FIBCD1 ectodomain; [3]): N.I. | inhibition of binding of FIBCD1 to acetylated BSA (FIBCD1 ectodomain): did not inhibit
